Reference: patent US20230181614A1, “ADMINISTRATION OF CITICOLINE TO IMPROVE COGNITIVE PERFORMANCE, ATTENTIONAL PERFORMANCE, AND MOTOR FUNCTION” (KYOWA HAKKO BIO CO., LTD., priority 2014, published 2023)
Values joined by “and” are separate entries in the source; they are usually repeats but may differ in a detail not shown here. Identical values can stand only once.

Legend:
Format in all cases: in vivo, human
[1] = tested on: Healthy subjects, ages 13-18; test: Stroop Color Word Test; set-up: unit not given here; conditions: for Stroop Color Trial V1, Mean / Stroop Difference V1, Mean / Stroop Interference Trial V1, Mean / Stroop Word Trial V1, Mean: Visit 1; for V3-V1 Stroop Color Trial, Mean / V3-V1 Stroop Difference, Mean / V3-V1 Stroop Interference Trial, Mean / V3-V1 Stroop Word Trial, Mean: Visit difference score; for Stroop Color Trial V3, Mean / Stroop Difference V3, Mean / Stroop Interference Trial V3, Mean / Stroop Word Trial V3, Mean: Visit 3
From the text: (§1) Study participants were screened by telephone prior to study enrollment. Healthy subjects, ages 13-18, with no significant medical conditions and no history of co-morbid psychiatric disorder, current Axis I or II diagnosis, or previous participation in a pharmacotherapeutic trial, were selected. Use of any psychotropic medication or any previous head injury resulting in loss of consciousness for 5 or more minutes were used as exclusion criteria. While no participant met criteria for a neuropsychiatric disorder at enrollment, clinical assessments were still completed throughout the study to evaluate changes in mood state. In addition, self-reports of sleep habits, lifestyle, and exercise routines were also administered at baseline as well as at each study visit to assess changes in health habits during study participation. Following the completion of Visit 1 assessment, participants were given their 28-day supply of citicoline (250 mg or 500 mg) or placebo, which was randomly assigned. They were instructed to take one capsule a day every day for the next 28 days. Visit 2 occurred fourteen days after Visit 1. At Visit 2, the remaining study pills were counted and participant dosage calendars were checked to ensure compliance with the protocol. Additional neuropsychological measures and clinical assessments were administered during this visit. Participants returned for Visit 3 fourteen days later, on the 28th day of their study participation. The pill bottle and the dosage calendar were collected from each participant. Urine and blood were again obtained. Participants also participated in similar clinical and neuropsychological testing and clinical measures that were given during visit 1. The Stroop measures the ability to inhibit incorrect responses and to resist interference. The three conditions, Color Naming, Word Reading, and Interference, are designed to establish competing response tendencies. Outcome variables include time to complete each condition, as well as total errors per condition. The Stroop test was administered at each of the three visits.

[2] = tested on: Healthy subjects, ages 13-18; test: Children's Depression Rating Scale (CDRS); conditions: for CDRS Score, Mean: V3-V1
From the text: as §1, with “CDRS is an investigator-administered scale that are widely used as observational” for “Stroop”, “of depressive symptoms in children.” for “the ability to inhibit incorrect responses and to resist interference.”, “scale” for “three conditions, Color Naming, Word Reading, and Interference, are designed to establish competing response tendencies. Outcome variables include time to complete each condition, as well as total errors per condition. The Stroop test”, “visits to assess presence or absence of depressive symptoms.” for “visits.”

[3] = tested on: Healthy subjects, ages 13-18; test: Wisconsin Card Sorting Task (WCST); conditions: Visit 3
From the text: Study participants were screened by telephone prior to study enrollment. Healthy subjects, ages 13-18, with no significant medical conditions and no history of co-morbid psychiatric disorder, current Axis I or II diagnosis, or previous participation in a pharmacotherapeutic trial, were selected. Use of any psychotropic medication or any previous head injury resulting in loss of consciousness for 5 or more minutes were used as exclusion criteria. While no participant met criteria for a neuropsychiatric disorder at enrollment, clinical assessments were still completed throughout the study to evaluate changes in mood state. In addition, self-reports of sleep habits, lifestyle, and exercise routines were also administered at baseline as well as at each study visit to assess changes in health habits during study participation. Following the completion of Visit 1 assessment, participants were given their 28-day supply of citicoline (250 mg or 500 mg) or placebo, which was randomly assigned. They were instructed to take one capsule a day every day for the next 28 days. Visit 2 occurred fourteen days after Visit 1. At Visit 2, the remaining study pills were counted and participant dosage calendars were checked to ensure compliance with the protocol. Additional neuropsychological measures and clinical assessments were administered during this visit. Participants returned for Visit 3 fourteen days later, on the 28th day of their study participation. The pill bottle and the dosage calendar were collected from each participant. Urine and blood were again obtained. Participants also participated in similar clinical and neuropsychological testing and clinical measures that were given during visit 1. The WCST assess a person’s ability to form abstract concepts, utilize feedback, and to shift and maintain set. […] The WCST involves 4 stimulus cards that vary in color, geometric form, and number. Without knowing the criterion, participants are asked to match cards from a deck to the stimulus cards. After the participant places each card, they are told whether they are correct or incorrect and should change the element they are matching based on this feedback. […] The WCST was given on the third visit of the study.

For `C[N+](C)(C)CCOP(=O)(O)OP(=O)([O-])OC[C@H]1O[C@@H](n2ccc(N)nc2=O)[C@H](O)[C@@H]1O` [citicoline, Cytidine 5′-diphosphocholine], the “Stroop Color Trial V1, Mean” value ([1]; 250 mg/day group) was 61.05, the “Stroop Difference V1, Mean” value ([1]; 250 mg/day group) was 43.53 and the “Stroop Interference Trial V1, Mean” value ([1]; 250 mg/day group) was 91.85. For the same compound, the “Stroop Word Trial V1, Mean” value ([1]; 250 mg/day group) was 48.32, the “V3-V1 Stroop Color Trial, Mean” value ([1]; 250 mg/day group) was -7.71 and the “V3-V1 Stroop Difference, Mean” value ([1]; 250 mg/day group) was -17.53. The “V3-V1 Stroop Interference Trial, Mean” value ([1]; 250 mg/day group) was -19.03, the “V3-V1 Stroop Word Trial, Mean” value ([1]; 250 mg/day group) was -1.98 and the “Stroop Color Trial V3, Mean” value ([1]; 250 mg/day group) was 53.34 and 53.35. For the same compound, the “Stroop Difference V3, Mean” value ([1]; 250 mg/day group) was 26.00, the “Stroop Interference Trial V3, Mean” value ([1]; 250 mg/day group) was 72.82 and the “Stroop Word Trial V3, Mean” value ([1]; 250 mg/day group) was 46.34. For the same compound, the “Stroop Color Trial V1, Mean” value ([1]; 500 mg/day group) was 60.12, the “Stroop Difference V1, Mean” value ([1]; 500 mg/day group) was 44.93 and the “Stroop Interference Trial V1, Mean” value ([1]; 500 mg/day group) was 91.62. For the same compound, the “Stroop Word Trial V1, Mean” value ([1]; 500 mg/day group) was 46.69, the “V3-V1 Stroop Color Trial, Mean” value ([1]; 500 mg/day group) was -5.77 and the “V3-V1 Stroop Difference, Mean” value ([1]; 500 mg/day group) was -15.55. The “V3-V1 Stroop Interference Trial, Mean” value ([1]; 500 mg/day group) was -16.95, the “V3-V1 Stroop Word Trial, Mean” value ([1]; 500 mg/day group) was -1.40 and the “Stroop Color Trial V3, Mean” value ([1]; 500 mg/day group) was 54.35. The “Stroop Difference V3, Mean” value ([1]; 500 mg/day group) was 29.38, the “Stroop Interference Trial V3, Mean” value ([1]; 500 mg/day group) was 74.68 and the “Stroop Word Trial V3, Mean” value ([1]; 500 mg/day group) was 45.30. The “CDRS, Mean” value ([2]; 250 mg/day, V1 (baseline)) was 16.89, the “CDRS, Mean” value ([2]; 250 mg/day, V3 (day 28)) was 16.22 and the “CDRS Score, Mean” value ([2]; 250 mg/day) was -0.67. The “CDRS, Mean” value ([2]; 500 mg/day, V1 (baseline)) was 16.33, the “CDRS, Mean” value ([2]; 500 mg/day, V3 (day 28)) was 16.08 and the “CDRS Score, Mean” value ([2]; 500 mg/day) was -0.25. For the same compound, the “WCST V3 Number of Categories Achieved (Mean)” value ([3]; 250 mg/day group) was 5.69, the “WCST V3 Number of Trials to Complete Category (Mean)” value ([3]; 250 mg/day group) was 71.15 and the “WCST V3 Number of Trials to Get into Category (Mean)” value ([3]; 250 mg/day group) was 15.19. For the same compound, the “WCST V3 Total Cards Used (Mean)” value ([3]; 250 mg/day group) was 90.88, the “WCST V3 Total Errors (Mean)” value ([3]; 250 mg/day group) was 19.73 and the “WCST V3 Total Perseverative Errors (Mean)” value ([3]; 250 mg/day group) was 8.54. For the same compound, the “WCST V3 Number of Categories Achieved (Mean)” value ([3]; 500 mg/day group) was 5.87, the “WCST V3 Number of Trials to Complete Category (Mean)” value ([3]; 500 mg/day group) was 70.57 and the “WCST V3 Number of Trials to Get into Category (Mean)” value ([3]; 500 mg/day group) was 13.78. The “WCST V3 Total Cards Used (Mean)” value ([3]; 500 mg/day group) was 89.57, the “WCST V3 Total Errors (Mean)” value ([3]; 500 mg/day group) was 19.00 and the “WCST V3 Total Perseverative Errors (Mean)” value ([3]; 500 mg/day group) was 9.13.
